Reference: article PMC4423729 (Neuropharmacology, 2010)

Experiments:
rtPA = rtPA (Homo sapiens, UniProt P00750); assay: Plasminogen activator activity; format: biochemical; details: Glu-plasminogen 100 nM, Spectrazyme PL 500 μM, PBS, 37°C, A405, 3 experiments
isolated aortic rings = assay: tPA induced vasodilation: phenylephrine contraction of isolated aortic rings; details: rtPA 1 nM, peptide 100 nM; EC50 of phenylephrine contraction; 3 experiments
[1] = for solubility in an aqueous environment: qualitative
BBB permeability [2] = assay: BBB permeability post ischemia; format: in vivo, rat; details: Evans blue, 12 animals/group
Sprague-Dawley rats = details: rat, in vivo
BBB permeability [3] = assay: BBB permeability by extravasation of radiolabeled fibrinogen in rats; format: in vivo, rat; details: PAI-1 or peptide 1 mg/kg IV together with rtPA 1 mg/kg, 6 animals/group

Sequence of rtPA (P00750 36-562): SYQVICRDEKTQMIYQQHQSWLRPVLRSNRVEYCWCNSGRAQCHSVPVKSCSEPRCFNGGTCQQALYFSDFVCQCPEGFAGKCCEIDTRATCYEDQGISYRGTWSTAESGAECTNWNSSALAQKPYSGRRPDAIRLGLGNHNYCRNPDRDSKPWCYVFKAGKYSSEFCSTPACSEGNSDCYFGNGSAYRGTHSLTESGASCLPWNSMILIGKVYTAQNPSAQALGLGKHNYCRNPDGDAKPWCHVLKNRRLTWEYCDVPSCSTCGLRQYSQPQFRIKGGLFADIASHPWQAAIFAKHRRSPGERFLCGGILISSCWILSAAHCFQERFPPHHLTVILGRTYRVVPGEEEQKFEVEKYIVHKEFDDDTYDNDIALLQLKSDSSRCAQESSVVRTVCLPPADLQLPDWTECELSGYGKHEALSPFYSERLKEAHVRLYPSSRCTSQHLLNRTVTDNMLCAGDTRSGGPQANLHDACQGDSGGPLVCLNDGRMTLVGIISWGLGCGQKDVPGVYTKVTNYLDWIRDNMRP

Compound | effect on the catalytic activity of rtPA (plasminogen activation) (rtPA) | inhibition of rtPA-induced vasodilation (isolated aortic rings) | solubility in an aqueous environment [1] | inhibition of the late effect of rtPA on BBB permeability (BBB permeability [2]; peptide together with rtPA three hours after the filament was withdrawn) [%] | effect of rtPA on mortality (Sprague-Dawley rats) | effect of rtPA on neurological severity score (NSS) (Sprague-Dawley rats) | mortality (Sprague-Dawley rats) [%] | BBB permeability post tMCAO (BBB permeability [2]; rtPA three hours after the filament was withdrawn) | effect on the catalytic activity of rtPA (plasminogen activation) (rtPA; listed as 18-aa- Phe^383) | inhibition of rtPA-induced permeation of radiolabeled fibrinogen (BBB permeability [3]) | maximal solubility ([1]; lyophilized peptide resuspended in 50% ethanol at 37°C, vortexed) [µg/mL]
CC[C@H](C)[C@H](NC(=O)[C@H](CCC(=O)O)NC(=O)[C@H](CCC(=O)O)NC(=O)[C@@H]1CCCN1C(=O)[C@H](C)NC(=O)[C@H](CCSC)NC(=O)[C@H](CCCNC(=N)N)NC(C)=O)C(=O)N[C@H](C(=O)N[C@@H](CCSC)C(=O)N[C@@H](CC(=O)O)C(=O)N[C@@H](CCCNC(=N)N)C(=O)N1CCC[C@H]1C(=O)N[C@@H](Cc1ccccc1)C(=O)N[C@@H](CC(C)C)C(=O)N[C@@H](Cc1ccc(O)cc1)C(=O)N[C@H](C(=O)N[C@H](C(=O)N[C@@H](CCCNC(=N)N)C(N)=O)C(C)C)C(C)C)[C@@H](C)CC [18-aa-Tyr^383] | without inhibiting the catalytic activity of rtPA | inhibited rtPA-induced vasodilation | more soluble in an aqueous environment than the original sequence | 96.7 | – | – | – | – | – | – | –
Ac-RMAPEEIIMDR-NH2 [11-aa] | without affecting the catalytic activity of rtPA | inhibited vasodilation | – | – | – | – | – | – | – | – | –
rtPA | – | – | – | – | increased mortality | aggravated the neurological disability | 28.6±4.2 | re-opened the BBB | – | – | –
CC[C@H](C)[C@H](NC(=O)[C@H](CCC(=O)O)NC(=O)[C@H](CCC(=O)O)NC(=O)[C@@H]1CCCN1C(=O)[C@H](C)NC(=O)[C@H](CCSC)NC(=O)[C@H](CCCNC(=N)N)NC(C)=O)C(=O)N[C@H](C(=O)N[C@@H](CCSC)C(=O)N[C@@H](CC(=O)O)C(=O)N[C@@H](CCCNC(=N)N)C(=O)N1CCC[C@H]1C(=O)N[C@@H](Cc1ccccc1)C(=O)N[C@@H](CC(C)C)C(=O)N[C@@H](Cc1ccccc1)C(=O)N[C@H](C(=O)N[C@H](C(=O)N[C@@H](CCCNC(=N)N)C(N)=O)C(C)C)C(C)C)[C@@H](C)CC [18-aa] | without affecting the catalytic activity of rtPA | inhibited vasodilation | relatively insoluble | – | – | – | – | – | without inhibiting the catalytic activity of rtPA | inhibited | 200
